≈ marks a conversion by molar mass, not a printed value.
Assays:
Nematode eggs = experiment: Plant pathogenic nematode inhibition test by dipping: nematode egg hatch inhibition (NY/T 1154.5-2006); format: in vivo; details: in vivo
Experimental: A plant pathogenic nematode inhibition test is conducted by dipping with the compounds in Table 1; and by referring to NY/T 1154.5-2006 (Part 5: Dipping Test for Insecticide Ovicidal Activity), the nematode egg hatch inhibition activity of the compounds is tested, as shown in Table 2: […]

Nematode J2 = experiment: Plant pathogenic nematode inhibition test by dipping: second-stage juveniles; format: in vivo; details: in vivo
Earthworm = Earthworm toxicity test (Test Guidelines on Environmental Safety Assessment for Chemical Pesticides); format: in vivo; details: cell adds 'low toxicity'
Experimental: (§1) According to the earthworm and edaphon toxicity test procedures as prescribed in the Test Guidelines on Environmental Safety Assessment for Chemical Pesticides, earthworm and edaphon toxicity tests are conducted on compounds 1 to 60 from Table 1. The simulative usual dose of pesticide in the edaphon test is 40 ppm.

Edaphon = Edaphon toxicity test (Test Guidelines on Environmental Safety Assessment for Chemical Pesticides); details: 15 d; 100 times of usual dose (simulative usual dose 40 ppm); cell adds 'low toxicity'
Experimental: as §1

Compound	LC50 (Nematode eggs)	LC50 (Nematode J2)	Earthworm Toxicity LC50 (14 d) (Earthworm)	Edaphon Toxicity (15 d) (Inhibition ratio when added amount is 100 times of usual dose) (Edaphon)
COc1ccc(C2OC(=O)CC2C(=O)OCCC(F)=C(F)F)c(C(F)(F)F)c1 (centres unmarked) [Compound 42]	12.39 µg/mL (≈ 30.1 µM)	10.40 µg/mL (≈ 25.2 µM)	>10, low toxicity mg/L	<50%, low toxicity
O=C1CC(C(=O)OCCC(F)=C(F)F)C(c2cc(Br)cc(Br)c2)O1 (centres unmarked) [Compound 18]	10.23 µg/mL (≈ 21.7 µM)	12.47 µg/mL (≈ 26.4 µM)	>10, low toxicity mg/L	<50%, low toxicity
O=C1CC(C(=O)OCCC(F)=C(F)F)C(c2ccc(Cl)cc2)O1 (centres unmarked) [Compound 15]	11.88 µg/mL (≈ 34.1 µM)	12.69 µg/mL (≈ 36.4 µM)	>10, low toxicity mg/L	<50%, low toxicity
O=C1CC(C(=O)OCCC=C(F)F)C(c2ccccc2)O1 (centres unmarked) [Compound 1]	11.81 µg/mL (≈ 39.9 µM)	12.24 µg/mL (≈ 41.3 µM)	>10, low toxicity mg/L	<50%, low toxicity
O=C1CC(C(=O)OCCC=C(F)F)C(c2ccccc2C(F)(F)F)O1 (centres unmarked) [Compound 45]	10.14 µg/mL (≈ 27.8 µM)	12.35 µg/mL (≈ 33.9 µM)	>10, low toxicity mg/L	<50%, low toxicity
O=C1CC(C(=O)OCCC(F)=C(F)F)C(c2cccc(Cl)c2Cl)O1 (centres unmarked) [Compound 8]	12.81 µg/mL (≈ 33.4 µM)	13.14 µg/mL (≈ 34.3 µM)	>10, low toxicity mg/L	<50%, low toxicity
CCCCc1ccc(C2OC(=O)CC2C(=O)OCCC(F)=C(F)F)cc1 (centres unmarked) [Compound 6]	11.81 µg/mL (≈ 31.9 µM)	13.45 µg/mL (≈ 36.3 µM)	>10, low toxicity mg/L	<50%, low toxicity
O=C1CC(C(=O)OCCC(F)=C(F)F)C(c2cc(Cl)cc(Cl)c2)O1 (centres unmarked) [Compound 13]	15.46 µg/mL (≈ 40.3 µM)	16.25 µg/mL (≈ 42.4 µM)	>10, low toxicity mg/L	<50%, low toxicity
O=C1CC(C(=O)OCCC=C(F)F)C(c2cc(C(F)(F)F)cc(C(F)(F)F)c2)O1 (centres unmarked) [Compound 47]	11.41 µg/mL (≈ 26.4 µM)	12.24 µg/mL (≈ 28.3 µM)	>10, low toxicity mg/L	<50%, low toxicity
N#Cc1ccc(C2OC(=O)CC2C(=O)OCCC(F)=C(F)F)cc1 (centres unmarked) [Compound 49]	10.36 µg/mL (≈ 30.5 µM)	11.35 µg/mL (≈ 33.5 µM)	>10, low toxicity mg/L	<50%, low toxicity
O=C1CC(C(=O)OCCC(F)=C(F)F)C(c2cc(Cl)ccc2Cl)O1 (centres unmarked) [Compound 10]	10.80 µg/mL (≈ 28.2 µM)	13.30 µg/mL (≈ 34.7 µM)	>10, low toxicity mg/L	<50%, low toxicity
O=C1CC(C(=O)OCCC(F)=C(F)F)C(c2cc(C(F)(F)F)cc(C(F)(F)F)c2)O1 (centres unmarked) [Compound 48]	12.25 µg/mL (≈ 27.2 µM)	13.27 µg/mL (≈ 29.5 µM)	>10, low toxicity mg/L	<50%, low toxicity
Cc1ccc(Oc2ccccc2C2OC(=O)CC2C(=O)OCCC(F)=C(F)F)cc1 (centres unmarked) [Compound 53]	8.98 µg/mL (≈ 21.4 µM)	12.35 µg/mL (≈ 29.4 µM)	>10, low toxicity mg/L	<50%, low toxicity
COc1ccc(C2OC(=O)CC2C(=O)OCCC=C(F)F)cc1 (centres unmarked) [Compound 38]	12.14 µg/mL (≈ 37.2 µM)	13.40 µg/mL (≈ 41.1 µM)	>10, low toxicity mg/L	<50%, low toxicity
O=C1CC(C(=O)OCCC(F)=C(F)F)C(c2ccc(OCc3ccc(F)cc3)cc2)O1 (centres unmarked) [Compound 56]	11.56 µg/mL (≈ 26.4 µM)	13.47 µg/mL (≈ 30.7 µM)	>10, low toxicity mg/L	<50%, low toxicity
COc1cccc(C2OC(=O)CC2C(=O)OCCC(F)=C(F)F)c1 (centres unmarked) [Compound 37]	12.84 µg/mL (≈ 37.3 µM)	13.67 µg/mL (≈ 39.7 µM)	>10, low toxicity mg/L	<50%, low toxicity
CCOc1ccc(C2OC(=O)CC2C(=O)OCCC(F)=C(F)F)cc1 (centres unmarked) [Compound 44]	10.23 µg/mL (≈ 28.6 µM)	13.12 µg/mL (≈ 36.6 µM)	>10, low toxicity mg/L	<50%, low toxicity

— patent US10111428B2, “Nematocide containing lactonic ring and preparation method and application thereof” (priority 2015, dated 2018)
